Experimental data published in patent US6861524B2, “Acyl and sulfonyl derivatives of 6,9-disubstituted 2-(trans-1,4-diaminocyclohexyl)-purines and their use as antiproliferative agents” (Aventis Pharmaceuticals Inc., priority 2000, dated 2005).
Read-outs that look alike come from different tables or passages of the source.

What was measured:
cdk4/cyclin D1 = cdk4/cyclin D1 (Homo sapiens, UniProt P11802); assay: Cyclin-dependent kinase assay, cdk4/cyclin D1 (GST-pRb substrate); type: biochemical
Chain of cdk4/cyclin D1 (P11802 whole entry): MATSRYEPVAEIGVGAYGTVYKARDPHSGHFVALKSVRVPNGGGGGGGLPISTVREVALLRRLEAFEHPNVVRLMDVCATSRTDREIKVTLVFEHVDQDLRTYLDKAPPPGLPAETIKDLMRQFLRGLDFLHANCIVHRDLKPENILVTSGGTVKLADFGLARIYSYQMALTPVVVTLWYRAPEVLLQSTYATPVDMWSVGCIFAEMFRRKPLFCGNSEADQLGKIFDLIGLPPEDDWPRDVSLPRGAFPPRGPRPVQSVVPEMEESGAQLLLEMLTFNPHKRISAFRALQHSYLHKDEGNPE
Chain of cdk4/cyclin D1 (P24385 whole entry partner): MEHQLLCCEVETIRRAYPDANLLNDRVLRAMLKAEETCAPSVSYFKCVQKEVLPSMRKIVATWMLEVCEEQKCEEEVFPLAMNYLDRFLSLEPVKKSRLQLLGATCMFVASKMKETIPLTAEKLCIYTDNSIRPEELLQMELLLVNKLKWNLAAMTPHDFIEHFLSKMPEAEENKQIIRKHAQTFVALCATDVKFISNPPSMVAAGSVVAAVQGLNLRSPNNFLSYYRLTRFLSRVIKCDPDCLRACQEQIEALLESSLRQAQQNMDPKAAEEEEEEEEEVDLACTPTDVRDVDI

MDA-MB-435 = assay: In vitro proliferation assay (MTT), MDA-MB-435; type: cell-based, human; conditions: mean (SD, n) where given, read-out: MB-435 Breast (IC50 μM)
Method: (§1) The proliferation of tumor cells can be measured using a tetrazolium salt-based assay known as the MTT (3-[4,5-Dimethylthiazol-2-yl]-2,5-diphenyltetrazolium bromide) assay. […] For the assay, the cell lines are plated onto 96 well plates at 1000 to 2500 cells/well (depending on the properties of the individual cell lines), left to attach and recover overnight. […] After 3 days, the cells are incubated with MTT dye (3-[4,5-Dimethylthiazol-2-yl]-2,5-diphenyltetrazolium bromide, Sigma #M5655, 10 mg/ml in Hank's Buffered Saline) to estimate the amount of live cells remaining vs. concentration for the test compounds. […] The MTT and culture medium is then removed from the cultures and 200 μl of DMSO is added to solubilize the dye from the cell layer. The absorbance at 570 nm is determined for each culture using a Spectramax plate reader (Molecular Devices).
(§2) IC50s were determined from the raw data from either the MTT or SRB assays.
(§3) All of the cell lines were obtained from American Type Tissue Collection, with the ATCC accession number in parentheticals. MCF-7 and MDA-MB-231 cells were grown in improved minimum essential medium (Biofluids) without phenol red, supplemented with 5% fetal bovine serum, 0.01 mg/ml gentamicin and 3 mM L-glutamine.

NCI-H460 = assay: In vitro proliferation assay (MTT), NCI-H460; type: cell-based, human; conditions: read-out: H-460 Lung (IC50 μM)
Method: (§4) The proliferation of tumor cells can be measured using a tetrazolium salt-based assay known as the MTT (3-[4,5-Dimethylthiazol-2-yl]-2,5-diphenyltetrazolium bromide) assay. The proliferation test is performed essentially as described by Carmichael et al., Cancer Res. 47: 936-942, 1987. For the assay, the cell lines are plated onto 96 well plates at 1000 to 2500 cells/well (depending on the properties of the individual cell lines), left to attach and recover overnight. […] After 3 days, the cells are incubated with MTT dye (3-[4,5-Dimethylthiazol-2-yl]-2,5-diphenyltetrazolium bromide, Sigma #M5655, 10 mg/ml in Hank's Buffered Saline) to estimate the amount of live cells remaining vs. concentration for the test compounds. Specifically, MTT solution is added to a final concentration of […] and the plates incubated at 37 C for 2 to 4 hr. The MTT and culture medium is then removed from the cultures and 200 μl of DMSO is added to solubilize the dye from the cell layer. The absorbance at 570 nm is determined for each culture using a Spectramax plate reader (Molecular Devices).
as §2
(§5) All of the cell lines were obtained from American Type Tissue Collection, with the ATCC accession number in parentheticals. […]

PC-3 = assay: In vitro proliferation assay (MTT), PC-3; type: cell-based, human; conditions: MTT assay; mean (SD, n) where given; read-out: PC-3 Prostate (IC50 μM)
Method: as §1, §2, §3

Colo-205 = assay: In vitro proliferation assay (MTT), Colo-205; type: cell-based; conditions: read-out: Colo-205 Colon (IC50 μM)
Method: as §4, §2

cdk2/cyclin E = cdk2/cyclin E (Homo sapiens, UniProt P24941); assay: Cyclin-dependent kinase assay, cdk2/cyclin E (GST-pRb substrate); conditions: read-out: CDK2 IC50; inhibition of cyclin E/CDK 2 enzyme activity
Method: (§7) The IC50 values for cdk1/cyclin B, cdk2/cyclin E, and cdk4/cyclin D1 inhibition are determined using the following methods:
The cdk2 sequence (accession number X62071) is amplified by PCR and cloned into the SpeI and XhoI sites of pFASTBAC1 (Life Technologies). […] This primer would anneal in the 3′ untranslated sequence.
The cyclin E sequence (accession number M73812) is amplified by PCR and cloned into the XbaI and XhoI sites of pFASTBAC1 (Life Technologies).
(§8) The cDNA for each of the cyclin-dependent kinases (CDK) and the corresponding cyclins are cloned into the baculovirus expression vector, pFASTBAC1 (Life Technologies). The sequences of each of the constructs are confirmed by automated fluorescent DNA sequencing according to the manufacture's protocol (Perkin Elmer/Applied Biosystems Inc).
(§9) The insect cell (Sf9) expression is optimized for each of the CDK/cyclin pairs according to the manufacturer's protocols (Life Technologies).
(§10) The viruses are added to the cells and the culture is incubated at 27° C. for the desired time. The cells are harvested by centrifugation at 3000 rpm for 10 minutes. The cells are snap frozen on dry ice and stored at −80° C.
(§11) Cell extracts are made following a standard procedure. The cell pellet is resuspended in lysis buffer (50 mM HEPES, pH 8.0, 10 mM MgCl2, 1 mM DTT, 2.5 mM EGTA, 1 mM EDTA, 10 mM β-glycerophosphate, 1 mM sodium vanadate, 1 mM sodium fluoride, 1×Protease inhibitor cocktail). The cells are lysed using the microfluidizer (Microfluidics) for 20 minutes. Cell debris is removed by centrifugation at 100,000×g. The cell extracts are aliquoted in 1 ml aliquots, frozen on dry ice, and stored at −80° C.
The kinase reactions are performed following a standard procedure. […]
The transformed bacteria are grown overnight to saturation, then diluted in YT broth and incubated at 37° C. for 2 h. […] The beads are washed with kinase buffer and then quantitated of Coomassie blue-stained proteins separated by SDS-PAGE using a protein standard of known concentration.

cdk1/cyclin B = cdk1/cyclin B (Homo sapiens, UniProt P06493); assay: Cyclin-dependent kinase assay, cdk1/cyclin B (Histone H1 substrate); conditions: read-out: CDK1 IC50; inhibition of cyclin B/CDK 1 enzyme activity
Chain of cdk1/cyclin B (P06493 whole entry): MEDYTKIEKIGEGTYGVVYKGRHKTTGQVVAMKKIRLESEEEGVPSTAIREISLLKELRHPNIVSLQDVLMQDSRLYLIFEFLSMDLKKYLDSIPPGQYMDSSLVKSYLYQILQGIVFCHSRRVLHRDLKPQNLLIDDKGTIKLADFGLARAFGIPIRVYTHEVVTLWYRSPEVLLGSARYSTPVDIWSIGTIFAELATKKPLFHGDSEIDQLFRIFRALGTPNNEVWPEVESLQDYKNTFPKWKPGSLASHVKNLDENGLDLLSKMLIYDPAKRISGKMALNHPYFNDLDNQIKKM
Chain of cdk1/cyclin B (P14635 whole entry partner): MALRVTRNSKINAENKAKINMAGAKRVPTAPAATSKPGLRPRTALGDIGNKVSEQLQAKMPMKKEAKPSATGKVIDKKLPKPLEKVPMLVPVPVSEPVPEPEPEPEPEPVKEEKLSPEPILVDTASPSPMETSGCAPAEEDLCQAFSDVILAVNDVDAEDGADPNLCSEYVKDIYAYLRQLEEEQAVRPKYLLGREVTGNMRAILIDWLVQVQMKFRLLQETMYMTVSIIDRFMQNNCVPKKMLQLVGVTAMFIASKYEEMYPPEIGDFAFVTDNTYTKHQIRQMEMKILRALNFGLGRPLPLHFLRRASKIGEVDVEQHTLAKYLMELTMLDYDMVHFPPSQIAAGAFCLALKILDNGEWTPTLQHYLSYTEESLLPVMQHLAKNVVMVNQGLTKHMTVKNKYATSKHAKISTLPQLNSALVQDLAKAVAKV
Method: as §7
The cdk1 sequence (accession number Y00272) is amplified by PCR and cloned into the BamHI and SalI sites of pFASTBAC1 (Life Technologies).
The cyclin B1 sequence (accession number M25753) is amplified by PCR and cloned into the BamHI and SalI sites of pFASTBAC1 (Life Technologies).
as §8, §9, §10, §11
The kinase reactions are performed following a standard procedure. The enzyme and inhibitor are diluted in kinase buffer (50 mM HEPES, pH 8.0, 10 mM MgCl2, 2.5 mM EGTA, 10 mM β-glycerophosphate, 1 mM sodium vanadate, 1 mM sodium fluoride, and 1 mM DTT) and pre-incubated for 30 minutes. […] The cdk1 enzyme activity is assayed using Histone H1 (Sigma) in the presence of 10 μM ATP for 30 min at room temperature. The reactions are terminated by the addition of 50 μL of 10 mM cold ATP to stop the reactions. The reactions are transferred to a pre-soaked 96-well multi-screen plate containing 30 μL of 100% TCA per well. After incubation for one hour at room temperature, the plates are washed twice with 200 μl of 20% TCA, followed by 200 μl of 10% TCA and finally with 200 μl of 5% TCA. After drying the plates at room temperature, the filter plates are placed in adapter plates (Packard) and 40 μl of Microscint-O® (Packard) is added to each well. Top Seal A film is used to cover the plates before counting in a Top Count Scintillation Counter.
The % remained activity of the indicated Cdk/cyclin kinase complex in the presence of inhibitor is calculated by the ratio of cpm in the presence of inhibitor to cpm in the absence of inhibitor (% Activity=vi/vo×100%).

HL-60 = assay: In vitro proliferation assay (MTT), HL-60; type: cell-based, human; conditions: read-out: HL-60 Leuk. (IC50 μM)
Method: as §4, §2, §5

Jurkat = assay: In vitro proliferation assay (MTT), Jurkat; type: cell-based, human; conditions: read-out: Jurkat Leuk. (IC50 μM)
Method: as §4, §2, §5

[1] = system: PC-3 human prostate tumors; assay: PC-3 human prostate tumor xenograft in nude mice; type: in vivo; conditions: Table 5, control 1308 ± 852
Method: (§6) Antitumor efficacy is assessed using two subcutaneous human tumor xenograft models. The studies are performed using conventional assay techniques. Briefly, HL-60 (leukemia, 5×10^5 cells) and PC-3 (prostate, 5×10^6 cells) tumor cells are injected subcutaneously into nude mice (Cr1-CD1-Br-nu, Charles River Laboratory, Wilmington, Mass.). Dosing with compounds began when tumors reached 50 to 100 mm^3. The dose route/schedule for the test compounds is ip/q1d (5×/wk). The test doses are set based on the maximum tolerated dose (MTD). […] The test doses for the efficacy studies are set at ⅓rd the MTD (low dose) and the MTD (high dose). The results are shown in Tables 4 and 5 (HL-60, leukemia) (PC-3, prostate cancer). The length of the treatment phase is dependent on the tumor growth rate for the two models. This treatment phase is typically about 3 weeks for the HL-60 model and about 5 weeks for the PC-3 model. […] Dosing with flavopiridol is for the same time frame as for the experimental compounds in both xenograft models. Tumor volume (twice weekly) and body weights (once weekly) are monitored throughout the course of the treatment phase of the experiment. Tumor sizes are measured by external caliper measurements of protruding tumor. Volumes are calculated using the following formula: volume=½ (a×b2), where b is the smaller of two perpendicular diameters.

HL-60 human leukemia = HL-60 human leukemia xenograft in nude mice; type: in vivo; conditions: Table 5, control 8341 ± 5355
Method: as §6

Substance | IC50 (cdk4/cyclin D1) | IC50 (MDA-MB-435) | IC50 (NCI-H460) | IC50 (PC-3) | IC50 (Colo-205) | IC50 (cdk2/cyclin E) | IC50 (cdk1/cyclin B) | IC50 (cdk4/cyclin D1; inhibition of cyclin D1/CDK 4 enzyme activity) | IC50 (HL-60) | IC50 (Jurkat) | PC-3 Mean Vol. ± SD ([1]; 1 mg/kg ip q1d 5x/wk) | PC-3 Mean Vol. ± SD ([1]; 3 mg/kg ip q1d 5x/wk) | HL60 Mean Vol. ± SD (HL-60 human leukemia; 1 mg/kg ip q1d 5x/wk) | HL60 Mean Vol. ± SD (HL-60 human leukemia; 3 mg/kg ip q1d 5x/wk)
trans-N^2-(4-Amino-cyclohexyl)-9-cyclohexyl-N^6-[1-(4-chloro-benzenesulfonyl)-piperidin-4-yl]-9H-purine-2,6-diamine dihydrochloride [Compound 108] | 170 nM | 0.14 µM | 0.29 µM | 0.43 µM | 0.18 µM | 10 nM | 7 nM |  |  |  |  |  |  | 
trans-1-{4-[2-(4-Amino-cyclohexylamino)-9-cyclopentyl-9H-purin-6-ylamino]-piperidin-1-yl}-1-(4-trifluoromethyl-phenyl)-methanone dihydrochloride [Compound 3] |  | 0.25 µM |  | 0.66 µM |  | 48 nM | 55 nM | 1120 nM | 0.13 µM | 0.22 µM | 671 ± 672 | 785 ± 473 | 6370 ± 4655 | 6092 ± 4278
